Molecules are shown by their SMILES.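 1) Cells in 96-well plates. 2) Compound, 48 h, 5 concentrations. 3) Linear interpolation between surrounding doses. 4) Unreached endpoint = highest concentration. GI50 is the concentration that inhibits growth by half.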 Calls of active or inactive are those of the source. No stated cut-off is given here; in the data, active = GI50 up to about 1.1 µM and inactive = higher.

The text below walks through data of ChEMBL document CHEMBL1201862, “PubChem BioAssay data set” (2004).

Common to all, as to experiment: NCI-60 cell line screen, 48 h
Test [1] has as its system 786-0.
Test [2] concerns ACHN.
Test [3] concerns CAKI-1.
Test [4] relates to HCT-116.
Test [5] relates to HOP-62.
The test system of test [6] is HOP-92.
In test [7] the test system is IGROV-1.
Test [8] concerns K562.
In test [9] the test system is NCI-H23.
Test [10] deals with NCI-H460.
Test [11] has as its system NCI/ADR-RES.
For test [12], the system named is PC-3.
The subject of test [13] is RPMI-8226.
Test [14] has as its system SF-295.
Test [15] deals with SK-OV-3.
Test [16] deals with SW-620.
In test [17] the test system is T47D.
For test [18], the system named is UACC-257.
The subject of test [19] is UACC-62.
Test [20] deals with UO-31.

For the compound `CCN1C(=O)C(=C/C=C/c2ccc([N+](=O)[O-])cc2)C(=O)N(CC)C1=S`, the GI50 in test [1] was 18.6 µM (inactive); in test [2] it was 18.1 µM (inactive); in test [3] it was 26.4 µM (inactive); in test [4] it was 17.6 µM (inactive); in test [5], 19.1 µM (inactive); in test [6] it was 18.3 µM (inactive). Moreover, the GI50 in [7] is 15.1 µM (inactive); in test [8], 20.1 µM (inactive); in test [9], 18.2 µM (inactive); in [10], 61.8 µM (inactive); in test [11], 19.5 µM (inactive); in test [12], 19.3 µM (inactive). Also, the GI50 in test [13] was 30.8 µM (inactive); in test [14], > 100 µM (inactive); in test [15], > 100 µM (inactive); in test [16], 19.1 µM (inactive); in test [17] it was > 100 µM (inactive); in test [18], 17.6 µM (inactive). In addition, the GI50 in test [19] was 18.9 µM (inactive); in test [20], 18.8 µM (inactive).
For `COc1cc(C=C2C(=O)NC(=S)NC2=O)cc(OC)c1OC`, the GI50 in test [1], in test [2], in test [3], in test [4], in test [5] and in [6] was > 100 µM (inactive) in each case. The GI50 in test [7], in test [8], in [9], in test [10], in test [11] and in test [12] was > 100 µM (inactive) throughout. For the same compound, the GI50 in test [13], in test [14], in [15], in test [16], in [17] and in [18] was > 100 µM (inactive) throughout. In addition, the GI50 in test [19] and in test [20] was > 100 µM (inactive) throughout.
With `c1ccc2c(c1)cc1n2CCc2c-1[nH]c1ccccc21`, the GI50 in [1], in [2], in test [3], in test [4], in test [5] and in test [6] was > 10 µM (inactive) in each case. The GI50 in [7], in test [8], in [9], in [10], in test [11] and in test [12] was > 10 µM (inactive) throughout. The GI50 in [13] is > 10 µM (inactive); in test [14], > 10 µM (inactive); in test [15], > 10 µM (inactive); in [16], > 10 µM (inactive); in [17] it was 3.01 µM (inactive); in test [18] it was > 10 µM (inactive). Also, the GI50 in test [19] and in test [20] was > 10 µM (inactive) throughout.
For `O=C(O)c1ccccc1-c1ccccc1C(=O)c1ccccc1`, the GI50 was > 100 µM (inactive) in test [1]; > 100 µM (inactive) in test [2]; > 100 µM (inactive) in test [3]; > 100 µM (inactive) in test [4]; > 100 µM (inactive) in test [5]; 51.6 µM (inactive) in test [6]. Moreover, the GI50 in [7], in test [8], in test [9], in test [10], in test [11] and in test [12] was > 100 µM (inactive) in each case. For the same compound, the GI50 in test [13], in [14], in test [15], in test [16], in test [17] and in test [18] was > 100 µM (inactive) in each case. Moreover, the GI50 in test [19] and in [20] was > 100 µM (inactive) each time.
Regarding `OC(c1ccc(Br)cc1)(c1cccs1)C1CC1` (stereo not given), the GI50 was 18.3 µM (inactive) in test [1]; 27 µM (inactive) in test [2]; 20.8 µM (inactive) in test [3]; 16.3 µM (inactive) in test [4]; 23.3 µM (inactive) in test [5]; 19.7 µM (inactive) in test [6]. In addition, the GI50 in test [7] was 15.7 µM (inactive); in test [8], 29.9 µM (inactive); in test [9], 22.4 µM (inactive); in test [10], 22.4 µM (inactive); in test [11] it was 25.1 µM (inactive); in test [12], 22.8 µM (inactive). Moreover, the GI50 in test [13] was 21.6 µM (inactive); in test [14] it was 21.6 µM (inactive); in [15] it was 36.4 µM (inactive); in test [16] it was 30.5 µM (inactive); in [17] it was 22.8 µM (inactive); in test [18], 27 µM (inactive). Further, the values for the GI50 in test [19] and in [20] were 16.4 µM (inactive) and 26.7 µM (inactive), respectively.
Consider `CC(=O)NC1C(OC2C(CO)OC(OCC3OC(n4ccc(N)nc4=O)C(O)C3O)C(NC(C)=O)C2O)OC(CO)C(O)C1O` (stereo not given), for which the GI50 is > 100 µM (inactive) in test [1]; 99.8 µM (inactive) in test [2]; > 100 µM (inactive) in test [3]; > 100 µM (inactive) in [4]; > 100 µM (inactive) in test [5]; > 100 µM (inactive) in test [6]. Moreover, the GI50 in test [7] was > 100 µM (inactive); in test [8], > 100 µM (inactive); in test [9] it was 97.9 µM (inactive); in [10], > 89.3 µM (inactive); in test [11], > 100 µM (inactive); in test [12], > 100 µM (inactive). For the same compound, the GI50 in test [13], in test [14], in test [15], in test [16], in test [17] and in test [18] was > 100 µM (inactive) throughout. The GI50 in test [19] and in [20] was > 100 µM (inactive) in each case.
Consider `CC1=CC(C)C/C=C/C2C3OC3(C)C(C)C3C(Cc4c[nH]c5ccccc45)NC(=O)C23C(=O)C=CC(=O)C1O` (stereo not given), for which the GI50 in test [1] is 3.25 µM (inactive); in test [2] it was 1.35 µM (inactive); in test [3], 0.885 µM (active); in test [4], 2.95 µM (inactive); in [5] it was 6.79 µM (inactive); in test [6], 0.9 µM (active). The GI50 in [7] was 11.1 µM (inactive); in [8] it was 3.06 µM (inactive); in [9], 14.5 µM (inactive); in test [10], 12.8 µM (inactive); in test [11], 24.3 µM (inactive); in [12] it was 11.6 µM (inactive). Also, the GI50 in test [13] was 0.272 µM (active); in test [14], 11.9 µM (inactive); in test [15] it was 12.4 µM (inactive); in [16] it was 2.02 µM (inactive); in test [17] it was 1.65 µM (inactive); in test [18] it was 6.27 µM (inactive). For the same compound, the figures for the GI50 in test [19] and in [20] were 15.2 µM (inactive) and 1.96 µM (inactive), respectively.
`Cc1ccc(O)c(C(=O)/C=C/c2ccccc2)c1`: the GI50 in test [1], in test [2], in test [3], in test [4], in test [5] and in [6] was > 100 µM (inactive) in each case. For the same compound, the GI50 in [7] was > 100 µM (inactive); in test [8], > 100 µM (inactive); in test [9], > 100 µM (inactive); in test [10], > 100 µM (inactive); in test [11], 53.5 µM (inactive); in test [12] it was > 100 µM (inactive). Further, the GI50 in test [13], in test [14], in test [15], in test [16], in test [17] and in test [18] was > 100 µM (inactive) in each case. Also, the GI50 in test [19] and in [20] was > 100 µM (inactive) throughout.
